Assay results: US6365584B1, “Arylysulphonamide-substituted benzimidazoles having tryptase-inhibiting activity” (Boehringer Ingelheim Pharma KG, priority 1999, dated 2002)
pIC50: −log10 of the molar value. Where a name gives a salt, the structure may show the parent alone.

Each compound was assayed against T1, rh beta tryptase (Homo sapiens, UniProt Q15661) (assay: tryptase inhibition test (cleavage of N-p-tosyl-Gly-Pro-Lys-para-nitroaniline, p-nitroaniline measured at 405 nm)). Settings: Tris HCl buffer pH 7.4 with calcium and heparin; substrate 0.6 mM; 5 min pre-incubation, 5 min incubation at 37° C.; enzyme activity 0.91 U/ml.
T1 construct: purchased Promega
Format: biochemical
Experimental: The compounds according to the invention are characterised by their tryptase-inhibiting activity. This ability to inhibit tryptase was investigated using the test described below. The measurement is carried out in Tris HCl buffer (100 mM), which additionally contains calcium (5 mM) and heparin (100 mg/ml), at pH 7.4. The standard used is rh beta tryptase which may be obtained commercially from Promega, for example. The substrate used is N-p-tosyl-Gly-Pro-Lys-para-nitroaniline in a concentration of 0.6 mM. The substrate is digested with tryptase to form p-nitroaniline which can be measured at 405 nm. Usually, an incubation period of 5 minutes and an incubation temperature of 37° C. are chosen. The enzyme activity used is 0.91 U/ml. The measurements are carried out in an Autoanalyser (CobasBio) made by Hofmann LaRoche. The potential inhibitory substances are used in concentrations of 10 μM in the screening, the inhibition of the tryptase being given in percent. The IC50 is determined at over 70% inhibition (concentration at which 50% of the enzyme activity is inhibited). After 5 minutes' pre-incubation of the potential inhibitory substances, the substrate is added to start the reaction, the formation of p-nitroaniline being taken as a measurement of the enzyme activity after 5 minutes, after testing the linearity.
The data obtained after the above test has been carried out (IC50 values) can be found in Table 3.

T1 sequence (Q15661 31-275): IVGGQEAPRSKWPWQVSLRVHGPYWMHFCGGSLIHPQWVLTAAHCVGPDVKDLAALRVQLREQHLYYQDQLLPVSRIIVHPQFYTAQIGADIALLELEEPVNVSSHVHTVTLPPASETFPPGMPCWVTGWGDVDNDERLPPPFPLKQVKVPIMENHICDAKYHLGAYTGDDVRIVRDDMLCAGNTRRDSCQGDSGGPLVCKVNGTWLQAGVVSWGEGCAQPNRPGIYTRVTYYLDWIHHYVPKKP

pIC50 | Compound
7.57 | CN(C)CCCCN(c1ccc2c(c1)nc(CCc1ccc(C(=N)N)cc1)n2C)S(=O)(=O)c1ccccc1 [Example 54, 1-Methyl-2-[2-(4-amidino-phenyl)-ethyl]-5-[N-(4-dimethyl-aminobutyl)-benzenesulphonyl-amino]-benzimidazole]
7.55 | CN1CCCN(C(=O)CN(c2ccc3c(c2)nc(CCc2ccc(C(=N)N)cc2)n3C)S(=O)(=O)c2ccccc2)CC1 [Example 55, 1-Methyl-2-[2-(4-amidino-phenyl)-ethyl]-5-[N-(4-methyl-1,4-diazepin-1-yl-carbonyl-methyl)-benzenesulphonyl-amino]-benzimidazole]
7.52 | Cn1c(CCc2ccc(C(=N)N)cc2)nc2cc(N(CC(=O)N3CCC(Cc4ccccc4)CC3)S(=O)(=O)c3ccc4ccccc4c3)ccc21 [Example 46, 1-Methyl-2-[2-(4-amidino-phenyl)-ethyl]-5-[N-(4′-benzyl-piperid-1-yl-carbonylmethyl)-naphth-2-ylsulphonylamino]-benzimidazole]
7.13 | CCN(CC)CCN(c1ccc2c(c1)nc(CCc1ccc(C(=N)N)cc1)n2CCOc1ccccc1OC)S(=O)(=O)c1ccccc1 [Example 26, 1-[2-(2-methoxyphenoxy)ethyl]-2-[2-(4-amidinophenyl)-ethyl]-5-[N-(2-diethylaminoethyl)-benzenesulphonylamino]-benzimidazole]
6.56 | CCN(CC)CCN(c1ccc2c(c1)nc(CCc1ccc(C(=N)N)cc1)n2CC1CCCO1)S(=O)(=O)c1ccccc1 (stereo not shown) [Example 27, 1-(2-tetrahydrofurylmlethyl)-2-[2-(4-amidinophenyl)-ethyl]-5-[N-(2-diethylaminoethyl)-benzenesulphonylamino]-benzimidazole]
7.54 | CCN(CC)CCN(c1ccc2c(c1)nc(CCc1ccc(C(=N)N)cc1)n2C)S(=O)(=O)c1cccc2cccnc12 [Example 52, 1-Methyl-2-[2-(4-amidino-phenyl)-ethyl]-5-[N-(2-diethyl-aminoethyl)-quinol-8-yl-sulphonylamino]-benzimidazole;]
7.66 | Cn1c(CCc2ccc(C(=N)N)cc2)nc2cc(N(Cc3cccnc3)S(=O)(=O)c3ccc4ccccc4c3)ccc21 [Example 45, 1-Methyl-2-[2-(4-amidino-phenyl)-ethyl]-5-[N-(pyrid-3-yl-methyl)-naphth-2-ylsulphonyl-amino]-benzimidazole;]
6.84 | Cn1c(CCc2ccc(C(=N)N)cc2)nc2cc(N(CC(=O)N3CCNCC3)S(=O)(=O)c3ccc4ccccc4c3)ccc21 [Example 48, 1-Methyl-2-[2-(4-amidino-phenyl)-ethyl]-5-[N-(piperazin-1-yl-carbonylmethyl)-naphth-2-ylsulphonylamino]-benzimidazole]
7.57 | CCN(CC)CCN(c1ccc2c(c1)nc(CCc1ccc(C(=N)N)cc1)n2C)S(=O)(=O)c1cccc2ccccc12 [Example 28, 1-methyl-2-[2-(4-amidino-phenyl)-ethyl]-5-[N-(2-diethyl-aminoethyl)-naphth-1-yl-sulphonylamino]-benzimidazole]
7.15 | Cn1c(CCc2ccc(C(=N)N)cc2)nc2cc(N(CCN3CCOCC3)S(=O)(=O)c3ccc4ccccc4c3)ccc21 [Example 47, 1-Methyl-2-[2-(4-amidino-phenyl)-ethyl]-5-[N-(2-morpholinoethyl)-naphth-2-yl-sulphonylamino]-benzimidazole]
7.42 | CCN(CC)CCN(c1ccc2c(c1)nc(CCc1ccc(C(=N)N)cc1)n2C)S(=O)(=O)c1cccc2cnccc12 [Example 53, 1-Methyl-2-[2-(4-amidino-phenyl)-ethyl]-5-[N-(2-diethyl-aminoethyl)-isoquinol-5-yl-sulphonylamino]-benzimidazole;]
7.60 | CCN(CC)CCN(c1ccc2c(c1)nc(CCc1ccc(C(=N)N)cc1)n2C)S(=O)(=O)c1csc2ccccc12 [Example 43, 1-Methyl-2-[2-(4-amidino-phenyl)-ethyl]-5-[N-(2-diethyl-aminoethyl)-benzo[b]thien-3-yl-sulphonylamino]-benzimidazole]
6.39 | CCN(CC)CCN(c1ccc2c(c1)nc(CCc1ccc(C(=N)N)cc1)n2CCCc1ccccc1)S(=O)(=O)c1ccccc1 [Example 25, 1-(3-phenylpropyl)-2-[2-(4-amidinophenyl)-ethyl]-5-[N-(2-diethylaminoethyl)-benzene-sulphonylamino]-benzimidazole]

Second part, the compound before the results:

Compound | pIC50
CCN(CC)CCN(c1ccc2c(c1)nc(CCc1ccc(C(=N)N)cc1)n2CCO)S(=O)(=O)c1ccccc1 [Example 16, 1-(2-hydroxyethyl)-2-[2-(4-amidinophenyl)-ethyl]-5-[N-(2-diethylaminoethyl)-benzene-sulphonylamino]-benzimidazole] | 6.92
1-Methyl-2-[2-(4-amidino- phenyl)-ethyl]-5-[N-(4′-(3″- hydroxypropyl)-piperazin-1-yl- carbonylmethyl)-naphth-2-yl- sulphonylamino]-benzimidazole [Example 51] | 7.46
CN1CCC(CN(c2ccc3c(c2)nc(CCc2ccc(C(=N)N)cc2)n3C)S(=O)(=O)c2ccccc2)C1 (stereo not shown) [Example 8, 1-methyl-2-[2-(4-amidino-phenyl)-ethyl]-5-[N-(1-methyl-pyrrolidin-3-yl-methyl)-benzene-sulphonyl-amino]-benzimidazole] | 7.05
CCCN(CCC)C1CCC(N(c2ccc3c(c2)nc(CCc2ccc(C(=N)N)cc2)n3C)S(=O)(=O)c2ccccc2)CC1 (stereo not shown) [Example 7, 1-methyl-2-[2-(4-amidino-phenyl)-ethyl]-5-[N-(4-dipropyl-amino-cyclohexanyl)-benzene-sulphonyl-amino]-benzimidazole] | 6.96
CCN(CC)CCN(c1ccc2c(c1)nc(CCc1ccc(C(=N)N)cc1)n2CCc1ccccc1)S(=O)(=O)c1ccccc1 [Example 24, 1-(2-phenylethyl)-2-[2-(4-amidinophenyl)-ethyl]-5-[N-(2-diethylaminoethyl)-benzene-sulphonylamino]-benzimidazole] | 6.72
Cn1c(CCc2ccc(C(=N)N)cc2)nc2cc(N(C3CCN(Cc4ccccc4)CC3)S(=O)(=O)c3ccccc3)ccc21 [Example 13, 1-methyl-2-[2-(4-amidino-phenyl)-ethyl]-5-[N-(1-benzyl-piperidin-4-yl)-benzene-sulphonylamino]-benzimidazole] | 7.12
CN1CCC(N(c2ccc3c(c2)nc(CCc2ccc(C(=N)N)cc2)n3C)S(=O)(=O)c2ccccc2)CC1 [Example 12, 1-methyl-2-[2-(4-amidino-phenyl)-ethyl]-5-[N-(1-methyl-piperidin-4-yl)-benzene-sulphonylamino]-benzimidazole] | 6.75
CN1CCCC1CN(c1ccc2c(c1)nc(CCc1ccc(C(=N)N)cc1)n2C)S(=O)(=O)c1ccccc1 (stereo not shown) [Example 9, 1-methyl-2-[2-(4-amidino-phenyl)-ethyl]-5-[N-(1-methyl-pyrrolidin-2-yl-methyl)-benzene-sulphonyl-amino]-benzimidazole] | 7.21
CCN(CC)CCN(c1ccc2c(c1)nc(CCc1ccc(C(=N)N)cc1)n2C)S(=O)(=O)c1ccccc1 [Example 2, N-{2-[2-(4-amidinophenyl)-ethyl]-1-methyl-benzimidazol-5-yl}-N-diethylaminoethyl-(benzenesulphonamide)-dihydrochloride] | 7.60
Cn1c(CCc2ccc(C(=N)N)cc2)nc2cc(N(C3CCNC3)S(=O)(=O)c3ccccc3)ccc21 (stereo not shown) [Example 14, 1-methyl-2-[2-(4-amidino-phenyl)-ethyl]-5-[N-(3-pyrrolidinyl)-benzenesulphonyl-amino]-benzimidazole] | 7.09
CCOCCCn1c(CCc2ccc(C(=N)N)cc2)nc2cc(N(CCN(CC)CC)S(=O)(=O)c3ccccc3)ccc21 [Example 3, N-{2-[2-(4-amidinophenyl)-ethyl]-1-(3-ethoxy-propyl)-benzimidazol-5-yl}-N-diethylaminoethyl-(benzenesulphonamide)-dihydrochloride] | 6.88
CCN(CC)CCN(c1ccc2c(c1)nc(CCc1ccc(C(=N)N)cc1)n2CCCO)S(=O)(=O)c1ccccc1 [Example 19, 1-(3-hydroxypropyl)-2-[2-(4-amidinophenyl)-ethyl]-5-[N-(2-diethylaminoethyl)-benzene-sulphonylamino]-benzimidazole] | 6.62
CCCn1c(CCc2ccc(C(=N)N)cc2)nc2cc(N(CCN(CC)CC)S(=O)(=O)c3ccccc3)ccc21 [Example 18, 1-n-propyl-2-[2-(4-amidino-phenyl)-ethyl]-5-[N-(2-diethyl-aminoethyl)-benzenesulphonyl-amino]-benzimidazole] | 6.53
Cn1c(CCc2ccc(C(=N)N)cc2)nc2cc(N(C3CCNCC3)S(=O)(=O)c3ccccc3)ccc21 [Example 11, 1-methyl-2-[2-(4-amidino-phenyl)-ethyl]-5-[N-(4-piperidinyl)-benzenesulphonyl-amino]-benzimidazole] | 7.05
CN(C)c1ccc(CN(c2ccc3c(c2)nc(CCc2ccc(C(=N)N)cc2)n3C)S(=O)(=O)c2ccccc2)cc1 [Example 4, N-{2-[2-(4-amidinophenyl)-ethyl]-1-methyl-benzimidazol-5-yl}-N-(4-dimethylaminobenzyl)-(benzenesulphonamide)-dihydrochloride] | 6.91
